The source of these data is PubChem BioAssay (NCI).

Several values for one entry are separate records, joined by “and”; a condition that tells them apart may be missing. Identical values can stand only once.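 These data come from cells grown in 96-well plates and exposed to compound for 48 hours at five concentrations. At the GI50, growth is halved. At the TGI there is no net growth.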

This test concerns MDA-MB-468 breast. The test can be described thus: DTP human tumour cell line panel, 48 h.

In general, GI50 refers to the concentration giving 50% growth inhibition. One may read the TGI as the concentration at which net growth stops. Low values mean greater sensitivity of the cells, high ones lower sensitivity of the cells. For `Cc1ccccc1NC(=O)c1cc2ccccc2cc1O`, the GI50 is 2.64 µM and the TGI was 7.89 µM.

As for `COC(=O)Nc1nc2ccc(S(=O)(=O)c3ccc(NC(=O)Nc4cc(C(F)(F)F)ccc4F)cc3)cc2[nH]1`, the GI50 was more than 25 µM and the TGI was more than 25 µM.

For the molecule `COc1ccc2c(c1)C=C1CSCC3=Cc4cc(OC)ccc4OC13O2`, the concentration for 50% growth inhibition (GI50) was 0.347 µM.

Turning to `NS(=O)(=O)c1ccc(N2N=C(c3cccs3)CC2c2ccccc2O)cc1` (stereo not given), the GI50 was 0.717 µM and the TGI came to 3.89 µM.

Take `CN(C)c1ncnc2c1ccn2C1OC(CO)C(O)C1O` (stereo not given): the GI50 is 0.231 µM and the TGI is 1 µM.

Turning to `Oc1ccc(O)c2c1C1(Cl)C(Cl)=C(Cl)C2(Cl)C1(Cl)Cl`, the GI50 was 3.71 µM and the TGI worked out at 12.8 µM.

With `O=CN1N=C(c2ccc(Nc3ccnc4cc(Cl)ccc34)cc2)CC1c1ccc(Cl)cc1` (stereo not given), the GI50 is 0.318 µM and the TGI is 8.33 µM.

Take `Cc1c(C(N)=O)sc2c1c(=O)n(Cc1ccccc1)c1nnc(S(=O)(=O)CC(=O)Nc3ccc(Cl)cc3)n21`: the GI50 is 12.7 µM and the TGI worked out at 36.3 µM.

As to `O=c1[nH]nc(-c2ccccc2)c2c(-c3ccccc3)onc12`, the concentration for 50% growth inhibition (GI50) was 0.424 µM and the TGI is more than 100 µM.

In the case of `CCc1nc(N)nc(N)c1C#CC(C)c1cc(-c2ccnc(C)c2)c2oc(C)nc2c1` (stereo not given), the GI50 was 0.103 µM and the TGI came out at 3 µM.

Regarding `Cc1ccc(S(=O)(=O)Nc2cc(Sc3ccccc3)c(O)c3ccccc23)cc1`, the GI50 was 1.38 µM and the TGI was found to be 3.36 µM.

Consider `CCCC(CCC)C(=O)OCC1(CO)C/C(=C\c2ccc(C(F)(F)F)cc2)C(=O)O1` (stereo not given), for which the GI50 was 16.6 µM and the concentration for total growth inhibition (TGI) was found to be 32.9 µM.

With `CC1=NN(C(=O)c2nn(-c3ccc(Cl)cc3)cc2O)C(=O)C1`, the GI50 is 4.92 µM and the total growth inhibition concentration (TGI) came out at 97 µM.

With `CNc1ncc2cc(Oc3ccc(F)cc3F)c(=O)n(C)c2n1`, the GI50 was more than 25 µM and the TGI is more than 25 µM.

For the molecule `CNC(=O)c1cncc(/C=C/c2c(Cl)cccc2Cl)c1`, the GI50 is 4.08 µM and the TGI was more than 19.1 µM.

Take `COc1cc(NC(=O)c2cc(O)c(C/C=C(\C)CCC=C(C)C)c(O)c2)cc2c1O[C@]1(C)CC[C@@H](O)C(C)(C)[C@H]1C2`: the GI50 was 2 µM and the total growth inhibition concentration (TGI) came out at 8.08 µM.

`COc1cc2c3c(n(CCCNCC4CC4)c(=O)c2cc1OC)-c1cc2c(cc1C3=O)OCO2`: the GI50 is 1.54 µM and the TGI stood at 9.66 µM.

On to `C=C1C(=O)O[C@H]2[C@H]1CC/C(CNC(=O)/C=C/c1ccc(Cl)cc1Cl)=C\CC[C@@]1(C)O[C@@H]21`, for which the GI50 is 0.396 µM and the TGI is 1.47 µM.

Take `O=C(Cn1c2ccccc2c2ccncc21)N/N=C\c1ccc2ccccc2c1`: the GI50 was 24.4 µM and the TGI worked out at 65.5 µM.

For `Cn1ncnc1C1c2n[nH]c(=O)c3cc(F)cc(c23)NC1c1ccc(F)cc1` (stereo not given), the GI50 is 3.74 µM and the TGI is more than 100 µM.

Turning to `COc1ccc(CN=C(N)N=C(N)N)cc1OC`, the GI50 was 47.6 µM and the TGI was determined as 477 µM.

As for `c1ccc(/C(=N\Nc2ccc3ccccc3n2)c2ccccn2)cc1`, the GI50 was 0.364 µM and the TGI amounted to 5.82 µM.

Consider `Nc1ccc(-c2nnc(SCc3ccc(O)c4ncccc34)n2-c2ccccc2)cc1`, for which the GI50 is 0.0358 µM and the TGI was determined as 1.85 µM.

Turning to `O=[N+]([O-])c1cc2c(ccc3occc32)o1`, the GI50 is 3.18 µM and the TGI stood at 17.1 µM.

As for `CCc1c2c(nc3ccc(OCc4ccc(B5OC(C)(C)C(C)(C)O5)cc4)cc13)-c1cc3c(c(=O)n1C2)COC(=O)[C@]3(O)CC`, the GI50 is less than 0.01 µM and the TGI is 0.0432 µM.

As for `Cc1ccc(-c2c3c(N)c4c(nc3nc3c2c(C)nn3-c2ccccc2)CCC4)cc1`, the GI50 was 1.97 µM and the TGI worked out at 5.15 µM.

Consider `O=C1COCCN1c1ccc(NCc2cn(C(=O)c3ccc(Cl)cc3)c3ccccc23)cc1`, for which the GI50 was 0.101 µM and the TGI came out at 0.286 µM.

With `COc1cc2nc(N3CCC[C@@H](NC4=CC(=O)c5ccccc5C4=O)C3)nc(N)c2cc1OC`, the GI50 is 1.81 µM and the TGI came to 3.77 µM.

Take `CN(CCCN(C)CCC1CCCCC1)CCC1CCCCC1`: the GI50 is 1.3 µM and the TGI stood at 2.66 µM.

In the case of `O=C1C=C(OCCCl)C(=O)c2c(O)ccc(O)c21`, the GI50 was 1.64 µM and the TGI was found to be 3.86 µM.

Consider `O=C1NC(SCc2ccc(F)cc2)=N/C1=C/c1cccc(OCc2ccc(Cl)cc2)c1`, for which the GI50 is 15.8 µM and the total growth inhibition concentration (TGI) is more than 100 µM.

With `O=C(N/N=C/c1ccc(Br)s1)c1[nH]c2ccc(Br)cc2c1-c1ccccc1`, the 50% growth inhibitory concentration (GI50) was 0.327 µM and the TGI came out at 4.89 µM.

Turning to `NCCSC(C[N+](=O)[O-])c1ccccc1Cl` (stereo not given), the GI50 was 2.38 µM and the TGI worked out at 6.5 µM.

As for `N/C(=N\c1nc2c(Br)cccc2s1)C(Br)Br`, the GI50 is 2.57 µM and the TGI turned out to be 9.69 µM.

With `CCCCN(CCCC)CCC(O)c1cc2ccc(C(F)(F)F)cc2c2cc(C(F)(F)F)ccc12` (stereo not given), the GI50 was 1.68 µM and the TGI stood at 3.46 µM.

With `Nc1nc(Cl)nc2c1ncn2[C@@H]1O[C@H](COS(N)(=O)=O)[C@@H](O)[C@H]1O`, the GI50 is 0.0176 µM; the TGI is 0.0468 µM and 0.0396 µM.

Regarding `CN(C)N=Nc1nn(C(=O)Nc2ccc(Cc3ccccc3)cc2)c2ccccc12`, the GI50 is 2.94 µM and the TGI was more than 100 µM.

As to `O=C(CN1C(=O)S/C(=C\C(Cl)=C\c2ccccc2)C1=O)NCCCn1ccnc1`, the GI50 was 1.35 µM and the total growth inhibition concentration (TGI) was 4.19 µM.
